According to ChEMBL document CHEMBL6103595, “Synthesis and evaluation of piceatannol derivatives as novel arginase inhibitors with radical scavenging activity and their potential for collagen reduction in dermal fibroblasts” (Eur J Med Chem, 2025):
The source made the active and inactive calls. No cut-off for these calls is given here.

Key:
Arginase-1 [1] = target: T1, Arginase-1 (Bos taurus, UniProt Q2KJ64); assay: Inhibition of bovine Arg-1 using L-ARG as substrate incubated for 60 mins by OPA colorimetric analysis
T1 sequence (Q2KJ64 whole entry): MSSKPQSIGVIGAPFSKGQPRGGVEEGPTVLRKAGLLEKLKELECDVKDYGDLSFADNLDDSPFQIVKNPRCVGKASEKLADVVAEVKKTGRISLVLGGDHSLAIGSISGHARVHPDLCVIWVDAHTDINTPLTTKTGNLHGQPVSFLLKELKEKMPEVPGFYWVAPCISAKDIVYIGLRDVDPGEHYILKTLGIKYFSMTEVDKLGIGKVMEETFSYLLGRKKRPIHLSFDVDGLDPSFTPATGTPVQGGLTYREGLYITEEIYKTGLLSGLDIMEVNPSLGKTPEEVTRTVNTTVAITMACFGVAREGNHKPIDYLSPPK

[2] = Antioxidant activity assessed as DPPH radical scavenging activity incubated for 30 mins under dark condition by absorbance based analysis; format: functional
Arginase-1 [3] = target: T2, Arginase-1 (Homo sapiens, UniProt P05089); assay: Inhibition of recombinant human Arg-1 using L-ARG as substrate incubated for 60 mins by OPA colorimetric analysis
T2 sequence (P05089 whole entry): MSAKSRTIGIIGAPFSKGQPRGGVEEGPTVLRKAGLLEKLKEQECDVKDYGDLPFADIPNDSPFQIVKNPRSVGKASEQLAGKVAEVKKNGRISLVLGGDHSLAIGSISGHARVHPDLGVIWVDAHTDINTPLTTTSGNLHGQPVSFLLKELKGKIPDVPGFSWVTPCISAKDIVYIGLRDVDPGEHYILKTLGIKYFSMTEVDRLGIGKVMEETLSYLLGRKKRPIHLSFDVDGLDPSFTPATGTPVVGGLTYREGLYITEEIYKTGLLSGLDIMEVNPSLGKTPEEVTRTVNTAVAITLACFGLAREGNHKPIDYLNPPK

[4] = Antifibrotic activity against TGF-beta induced human Red-COLA1 cells assessed as reduction in collagen deposition rate at 5 uM measured after 7 days by sirius red staining based microplate reader analysis (reference value: 130.6%); format: functional; parameters: scale not given: the % may be the effect or the level left; details: time 7 day
Red-COLA1 [5] = assay: (§1) Antifibrotic activity against TGF-beta induced human Red-COLA1 cells assessed as reduction in procollagen type-1 synthesis at 5 uM incubated for 48 hrs by ELISA (reference value: 130.6 ng/ml); format: functional
[6] = Cytotoxicity against human Red-COLA1 cells assessed as cell viability at 5 uM incubated for 24 hrs by MTT assay relative to control; format: functional; details: read-out: Activity
[7] = Antioxidant activity assessed as ABTS radical scavenging activity incubated for 12 hrs under dark condition by absorbance based plate reader analysis; format: functional
[8] = Stability of the compound in aqueous solution at 20 mM measured after 4 hrs; format: physicochemical; details: buffer, 20000 µM
Red-COLA1 [9] = assay: Antifibrotic activity against TGF-beta induced human Red-COLA1 cells assessed as reduction in procollagen type-1 synthesis at 10 uM incubated for 48 hrs by ELISA (reference value: 130.6 ng/ml); format: functional, cell-based
[10] = Antifibrotic activity against TGF-beta induced human Red-COLA1 cells assessed as reduction in collagen deposition rate at 10 uM measured after 7 days by sirius red staining based microplate reader analysis (reference value: 130.6%); format: functional; parameters: scale not given: the % may be the effect or the level left; details: time 7 day
[11] = Cytotoxicity against human Red-COLA1 cells assessed as cell viability at 10 uM incubated for 24 hrs by MTT assay relative to control; format: functional; details: read-out: Activity
Arginase-1 (Bos taurus) = target: T3, Arginase-1 (Bos taurus) (UniProt Q2KJ64); assay: Potency index, ratio of piceatannol IC50 to test compound IC50 for inhibition of bovine Arg-1 using L-ARG as substrate
T3 sequence (whole entry): T1 sequence (Q2KJ64 whole entry)

[12] = Stability of the compound in aqueous solution at 20 mM measured at <= 2 hrs relative to control; format: physicochemical; details: read-out: Stability
[13] = as §1; format: functional

## Oc1ccc(NC(=S)c2ccc(O)c(O)c2)cc1
Arginase-1 [1]
  IC50: 95 µM

## Oc1cc(O)cc(C(=S)Nc2ccc(O)c(O)c2)c1
Arginase-1 [1]
  IC50: 20 µM
[2]
  EC50: 17 µM
Arginase-1 [3]
  IC50: 32 µM
[4]
  Activity: 133.1%
Red-COLA1 [5]
  Activity: inactive
[6]
  viability at 5 µM: 100%
[7]
  EC50: 12 µM
[8]
  Stability: Stable

## Oc1ccc(/N=C(/Nc2ccc(O)c(O)c2)c2ccc(O)c(O)c2)cc1O
Arginase-1 [1]
  IC50: 171 µM

## Oc1cc(O)cc(NC(=S)c2ccc(O)c(O)c2)c1
Arginase-1 [1]
  IC50: 66 µM

## Oc1ccc(/C=C/c2ccc(O)c(O)c2)cc1O
Arginase-1 [1]
  IC50: 69 µM

## O=S(=O)(Nc1ccc(O)c(O)c1)c1cccc(O)c1
Arginase-1 [1]
  IC50: 325 µM

## O=C(Nc1ccc(O)c(O)c1)c1cccc(O)c1O
Arginase-1 [1]
  IC50: 69 µM

## O=C(c1ccc(O)c(O)c1)N(CCCO)c1ccc(O)c(O)c1
Arginase-1 [1]
  IC50: 148 µM

## Nc1cccc(NC(=S)c2ccc(O)c(O)c2)c1
Arginase-1 [1]
  IC50: 116 µM

## N[C@@H](CSCCB(O)O)C(=O)O
Arginase-1 [1]
  IC50: 17 µM
Red-COLA1 [9]
  Activity: inactive
Arginase-1 [3]
  IC50: 9 µM
[10]
  Activity: 130.6%
[11]
  viability at 10 µM: 96.7%

## Oc1cccc(NC(=S)c2ccc(O)c(O)c2)c1
Arginase-1 [1]
  IC50: 41 µM

## O=C(Nc1ccc(O)c(O)c1)c1ccc(O)c(O)c1
Arginase-1 [1]
  IC50: 20 µM
[2]
  EC50: 12 µM
[7]
  EC50: 12 µM

## O=C(Nc1ccc(O)c(O)c1)c1cc(O)c(O)c(O)c1
Arginase-1 [1]
  IC50: 65 µM

## O=C(c1ccc(O)c(O)c1)N(CCO)c1ccc(O)c(O)c1
Arginase-1 [1]
  IC50: 228 µM

## Nc1cccc(C(=S)Nc2ccc(O)c(O)c2)c1
Arginase-1 [1]
  IC50: 161 µM

## Nc1cccc(NC(=O)c2ccc(O)c(O)c2)c1
Arginase-1 [1]
  IC50: 440 µM

## Oc1ccc(C(=S)Nc2ccc(O)c(O)c2)cc1
Arginase-1 [1]
  IC50: 13 µM
[2]
  EC50: 14 µM
Arginase-1 [3]
  IC50: 38 µM
[7]
  EC50: 10 µM

## O=C(c1ccc(O)c(O)c1)N(CCCCO)c1ccc(O)c(O)c1
Arginase-1 [1]
  IC50: 88 µM

## Cc1c(C)c2c(c(C)c1O)CCC(C)(C(=O)O)O2 (stereo not given) [TROLOX]
[2]
  EC50: 29 µM
[7]
  EC50: 24 µM

## O=C(Nc1ccc(O)cc1)c1ccc(O)c(O)c1
Arginase-1 [1]
  IC50: 2600 µM

## Oc1ccc(C(=S)Nc2ccccc2)cc1O
Arginase-1 [1]
  IC50: 124 µM

## Oc1ccc(O)c(/C=C/c2ccc(O)c(O)c2)c1
Arginase-1 [1]
  IC50: 59 µM

## Nc1ccc(NC(=O)c2ccc(O)c(O)c2)cc1
Arginase-1 [1]
  IC50: 170 µM

## O=C(Nc1ccccc1O)c1ccc(O)c(O)c1
Arginase-1 [1]
  IC50: 3100 µM

## O=C(Nc1ccccc1)c1ccc(O)c(O)c1
Arginase-1 [1]
  IC50: 1000 µM

## O=c1c(O)c(-c2ccc(O)c(O)c2)oc2cc(O)cc(O)c12 [QUERCETIN]
[2]
  EC50: 16 µM
[7]
  EC50: 10 µM

## O=C(Nc1ccc(O)c(O)c1)c1cc(O)cc(O)c1
Arginase-1 [1]
  IC50: 34 µM
[2]
  EC50: 23 µM
[7]
  EC50: 5 µM

## O=C(Nc1cc(O)cc(O)c1)c1ccc(O)c(O)c1
Arginase-1 [1]
  IC50: 202 µM

## O=S(=O)(Nc1ccc(O)c(O)c1)c1cc(O)ccc1O
Arginase-1 [1]
  IC50: > 500 µM

## O=S(=O)(Nc1ccc(O)c(O)c1)c1ccc(O)c(O)c1
Arginase-1 [1]
  IC50: 130 µM
Arginase-1 (Bos taurus)
  Ratio IC50: 6

## O=C(c1ccc(O)c(O)c1)N(CCCCCO)c1ccc(O)c(O)c1
Arginase-1 [1]
  IC50: 137 µM

## Oc1ccc(NC(=S)c2ccccc2)cc1O
Arginase-1 [1]
  IC50: 63 µM

## CN(C(=O)c1ccc(O)c(O)c1)c1ccc(O)c(O)c1
Arginase-1 [1]
  IC50: 222 µM

## Oc1ccc(/C=C/c2ccccc2)cc1O [(E)-3,4-STILBENDIOL]
Arginase-1 [1]
  IC50: 97 µM

## Oc1cccc(C(=S)Nc2ccc(O)c(O)c2)c1
Arginase-1 [1]
  IC50: 16 µM
[2]
  EC50: 10 µM
Arginase-1 [3]
  IC50: 28 µM
[7]
  EC50: 12 µM

## O=C(Nc1cccc(O)c1)c1ccc(O)c(O)c1
Arginase-1 [1]
  IC50: 770 µM

## Oc1cc(O)cc(/C=C/c2ccc(O)c(O)c2)c1 [PICEATANNOL]
Arginase-1 [1]
  IC50: 20 µM
Red-COLA1 [9]
  Activity: inactive
[2]
  EC50: 37 µM
Arginase-1 [3]
  IC50: 28 µM
[10]
  Activity: 113.5%
[12]
  remaining at 2 h, 20000 µM: 70%
[7]
  EC50: 13 µM
[11]
  viability at 10 µM: 100%

## Oc1ccc(NC(=S)c2ccc(O)c(O)c2)cc1O
Arginase-1 [1]
  IC50: 9 µM
[2]
  EC50: 9 µM
Arginase-1 [3]
  IC50: 55 µM
[4]
  Activity: 100.8%
[13]
  Activity: 87.5 ng/mL
[6]
  viability at 5 µM: 92.8%
[12]
  remaining at 2 h, 20000 µM: 70%
[7]
  EC50: 12 µM
Arginase-1 (Bos taurus)
  Ratio IC50: 2

## O/N=C(/Nc1ccc(O)c(O)c1)c1ccc(O)c(O)c1
Arginase-1 [1]
  IC50: 115 µM
[2]
  EC50: 16 µM
[7]
  EC50: 12 µM
